Test results: US9834566B2, “Pyrazolopyrimidine macrocycles as inhibitors of human immunodeficiency virus replication” (priority 2014, dated 2017)
pEC50: −log10 of the molar value.

Each compound was assayed on recombinant NL-RLuc virus (NL4-3 with Renilla Luciferase gene) (assay: Inhibition of HIV replication (NL-RLuc luciferase reporter virus in MT-2 cells)). Settings: NL43, 120 h.
Assay type: cell-based
Excerpt: Inhibition of HIV Replication:
A recombinant NL-RLuc proviral clone was constructed in which a section of the nef gene from NL4-3 was replaced with the Renilla Luciferase gene. This virus is fully infectious and can undergo multiple cycles of replication in cell culture. In addition, the luciferous reporter provides a simple and easy method for quantitating the extent of virus growth and consequently, the antiviral activity of test compounds. The plasmid pNLRLuc contains the proviral NL-Rluc DNA cloned into pUC18 at the PvuII site. The NL-RLuc virus was prepared by transfection of 293T cells with the plasmid pNLRLuc. Transfections were performed using the LipofectAMINE PLUS kit from Invitrogen (Carlsbad, Calif.) according to the manufacturer and the virus generated was titered in MT-2 cells. For susceptibility analyses, the titrated virus was used to infect MT-2 cells in the presence of compound, and after 5 days of incubation, cells were processed and quantitated for virus growth by the amount of expressed luciferase. Assay media was RPMI 1640 supplemented with 10% heat inactivated fetal bovine serum (FBS), 100 units/ml penicillin G/100 units/ml streptomycin, 10 mM HEPES buffer pH 7.55 and 2 mM L-glutamine. The results from at least 2 experiments were used to calculate the EC50 values. Luciferase was quantitated using the Dual Luciferase kit from Promega (Madison, Wis.). Susceptibility of viruses to compounds was determined by incubation in the presence of serial dilutions of the compound. The 50% effective concentration (EC50) was calculated by using the exponential form of the median effect equation where (Fa)=1/[1+(ED50/drug conc.)^m] (Johnson V A, Byington R T. Infectivity Assay. In Techniques in HIV Research. ed. Aldovini A, Walker B D. 71-76. New York: Stockton Press. 1990).

SMILES | pEC50
Cc1nc2cc3nn2c(c1[C@H](OC(C)(C)C)C(=O)O)-c1ccc(cc1)OCCCCCCOc1cc(F)ccc1-c1cccc-3c1 [Example 1, (2S)-2-(tert-butoxy)-2-{18-fluoro-4-methyl-21,28-dioxa-5,7,8-triazahexacyclo [27.2.2.1^6,^9.1^10,^14.0^2,^7.0^15,^20]pentatriaconta-1(31),2,4,6(35),8,10(34),11,13, 15(20),16,18,29,32-tridecaen-3-yl}acetic acid] | 6.40
Cc1nc2cc3nn2c(c1[C@H](OC(C)(C)C)C(=O)O)-c1ccc(cc1)OC/C=C/COc1cc(F)ccc1-c1cccc-3c1 [Example 2, (2S)-2-(tert-butoxy)-2-[(23E)-18-fluoro-4-methyl-21,26-dioxa-5,7,8-triazahexacyclo [25.2.2.1^6,^9.1^10,^14.0^2,^7.0^15,^20]tritriaconta-1(29),2,4,6(33),8,10(32),11,13, 15(20),16,18,23,27,30-tetradecaen-3-yl]acetic acid] | 6.16
Cc1nc2cc3nn2c(c1[C@H](OC(C)(C)C)C(=O)O)-c1ccc(cc1)OCc1cccc(c1)COc1cc(F)ccc1-c1cccc-3c1 [Example 3, (2S)-2-(tert-butoxy)-2-{18-fluoro-4-methyl-21,29-dioxa-5,7,8-triazaheptacyclo [28.2.2.1^6,^9.1^10,^14.1^23,^27.0^2,^7.0^15,^20]heptatriaconta-1(32),2,4,6(37),8,10(36),11,13, 15(20),16,18,23(35),24,26,30,33-hexadecaen-3-yl}acetic acid] | 7.26
Cc1nc2cc3nn2c(c1[C@H](OC(C)(C)C)C(=O)O)-c1ccc(cc1)OCC#CCOc1cc(F)ccc1-c1cccc-3c1 [Example 4, (2S)-2-(tert-butoxy)-2-{18-fluoro-4-methyl-21,26-dioxa-5,7,8-triazahexacyclo [25.2.2.1^6,^9.1^10,^14.0^2,^7.0^15,^20]tritriaconta-1(29),2,4,6(33),8,10(32),11,13, 15(20),16,18,27,30-tridecaen-23-yn-3-yl}acetic acid] | 6.55
Cc1nc2cc3nn2c(c1[C@H](OC(C)(C)C)C(=O)O)-c1ccc(cc1)OCCOCCOc1cc(F)ccc1-c1cccc-3c1 [Example 5, (2S)-2-(tert-butoxy)-2-{18-fluoro-4-methyl-21,24,27-trioxa-5,7,8-triazahexacyclo [26.2.2.1^6,^9.1^10,^14.0^2,^7.0^15,^20]tetratriaconta-1(30),2,4,6(34),8,10(33),11,13, 15(20),16,18,28,31-tridecaen-3-yl}acetic acid] | 6.51
Cc1nc2cc3nn2c(c1[C@H](OC(C)(C)C)C(=O)O)-c1ccc(c2ccccc12)OCc1cccc(c1)COc1cc(F)ccc1-c1cccc-3c1 [Example 6, (2S)-2-(tert-butoxy)-2-{18-fluoro-4-methyl-21,29-dioxa-5,7,8-triazaoctacyclo[28.6.2.1^6,9.1^10,14. 1^23,27.0^2,7.0^15,20.0^31,36]hentetraconta-1(37),2,4,6(41),8,10(40),11,13,15(20),16,18,23(39),24,26,30(38),31(36),32,34-octadecaen-3-yl}acetic acid] | 4.70
Cc1nc2cc3nn2c(c1[C@H](OC(C)(C)C)C(=O)O)-c1ccc(c2ccccc12)OCC#CCOc1cc(F)ccc1-c1cccc-3c1 [Example 7, (2S)-2-(tert-butoxy)-2-{18-fluoro-4-methyl-21,26-dioxa-5,7,8-triazaheptacyclo[25.6.2.1^6,9.1^10,14.0^2,7.0^15,20.0^28,33]heptatriaconta-1(34),2,4,6(37),8,10(36),11,13,15(20),16,18,27(35),28 (33),29,31-pentadecaen-23-yn-3-yl}acetic acid] | 4.92
C=C1COc2cc(ccc2C)-c2c([C@H](OC(C)(C)C)C(=O)O)c(C)nc3cc(nn23)-c2cccc(c2)-c2ccc(F)cc2OC1 [Example 8, (2S)-2-(tert-Butoxy)-2-{22-fluoro-7,13-dimethyl-17-methylidene-15,19-dioxa-3,4,6-triazahexacyclo [24.3.1.1^2,^5.1^10,^14.0^4,^9.0^20,^25]dotriaconta-1(30),2,5(32),6,8,10,12,14(31), 20(25),21,23,26,28-tridecaen-8-yl}acetic acid] | 6.11
Cc1ccc2cc1OC/C=C/COc1cc(F)ccc1-c1cccc(c1)-c1cc3nc(C)c([C@H](OC(C)(C)C)C(=O)O)c-2n3n1 [Example 9, (2S)-2-(tert-Butoxy)-2-[(17E)-23-fluoro-7,13-dimethyl-15,20-dioxa-3,4,6-triazahexacyclo [25.3.1.1^2,^5.1^10,^14.0^4,^9.0^21,^26]tritriaconta-1(31),2,5(33),6,8,10,12,14(32), 17,21(26),22,24,27,29-tetradecaen-8-yl]acetic acid] | 6.31
Cc1ccc2cc1OCc1cccc(n1)COc1cc(F)ccc1-c1cccc(c1)-c1cc3nc(C)c([C@H](OC(C)(C)C)C(=O)O)c-2n3n1 [Example 10, (2S)-2-(tert-Butoxy)-2-{26-fluoro-7,13-dimethyl-15,23-dioxa-3,4,6,35-tetraazaheptacyclo [28.3.1.1^2,^5.1^10,^14.0^17,^21.0^4,^9.0^24,^29]heptatriaconta-1(34),2,5(37),6,8,10,12,14(36), 17(35),18,20,24(29),25,27,30,32-hexadecaen-8-yl}acetic acid] | 5.38
Cc1ccc2cc1OC/C=C\COc1cc(F)ccc1-c1cccc(c1)-c1cc3nc(C)c([C@H](OC(C)(C)C)C(=O)O)c-2n3n1 [Example 11, (2S)-2-(tert-Butoxy)-2-[(17Z)-23-fluoro-7,13-dimethyl-15,20-dioxa-3,4,6-triazahexacyclo [25.3.1.1^2,^5.1^10,^14.0^4,^9.0^21,^26]tritriaconta-1(31),2,5(33),6,8,10,12,14(32), 17,21(26),22,24,27,29-tetradecaen-8-yl]acetic acid] | 5.48
Cc1ccc2cc1OCCC(F)(F)C(F)(F)CCOc1cc(F)ccc1-c1cccc(c1)-c1cc3nc(C)c([C@H](OC(C)(C)C)C(=O)O)c-2n3n1 [Example 12, (2S)-2-(tert-Butoxy)-2-{18,18,19,19,25-pentafluoro-7,13-dimethyl-15,22-dioxa-3,4,6-triazahexacyclo [27.3.1.1^2,^5.1^10,^14.0^4,^9.0^23,^28]pentatriaconta-1(33),2,5(35),6,8,10,12,14(34), 23(28),24,26,29,31-tridecaen-8-yl}acetic acid] | 5.78
Cc1ccc2cc1OCC#CCOc1cc(F)ccc1-c1cccc(c1)-c1cc3nc(C)c([C@H](OC(C)(C)C)C(=O)O)c-2n3n1 [Example 13, (2S)-2-(tert-Butoxy)-2-{23-fluoro-7,13-dimethyl-15,20-dioxa-3,4,6-triazahexacyclo [25.3.1.1^2,^5.1^10,^14.0^4,^9.0^21,^26]tritriaconta-1(31),2,5(33),6,8,10,12,14(32), 21(26),22,24,27,29-tridecaen-17-yn-8-yl}acetic acid] | 6.54
Cc1ccc2cc1OCCN(C(C)(C)C)CCOc1cc(F)ccc1-c1cccc(c1)-c1cc3nc(C)c([C@H](OC(C)(C)C)C(=O)O)c-2n3n1 [Example 14, (2S)-2-(tert-Butoxy)-2-{18-tert-butyl-24-fluoro-7,13-dimethyl-15,21-dioxa-3,4,6,18-tetraazahexacyclo [26.3.1.1^2,^5.1^10,^14.0^4,^9.0^22,^27]tetratriaconta-1(32),2,5(34),6,8,10,12,14(33), 22(27),23,25,28,30-tridecaen-8-yl}acetic acid] | 5.49
